Literature values as cited in US5583105A, “Oral pharmaceutical preparation” (Biogal Gyogyszerguar Rt, priority 1994, dated 1996).

Conditions: in water

CCOC(=O)CC(O)(CC(=O)OCC)C(=O)OCC [triethylcitrate, triethyl-citrate]
concentration of aqueous solution formed: 6.5%
